This is an account of results in PubChem BioAssay AID720587 (Broad Institute, 2013).

SMILES strings stand for the structures. The source made the active and inactive calls.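 How the source made its calls: active means fitted curve reaches -35% activity change at a concentration below twice the top valid dose tested; inactive means the rest, including effects opposite to the expected direction.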

One assay in a line: EWS/Fli1-dependent A673 cell killing, confirmation, CellTiter-Glo luminescence, cherry-pick retest (AID 720587). The conditions noted are these: A673 Ewing sarcoma viability, CellTiter-Glo ATP luminescence, 72 h; at 23.5 µM (top of the series).
For the molecule `O=S(=O)(c1ccc(F)cc1)N1C[C@H]2[C@@H](c3ccccc31)[C@H](CO)N2Cc1ccccc1Cl`, the activity change, negative = cytotoxicity was -16.4% (inactive).
As for `CCCNC(=O)N1[C@H](C#N)[C@H](c2ccc(C#Cc3cccc(F)c3)cc2)[C@H]1CO`, the activity change, negative = cytotoxicity is 5% (inactive).

The assay is the same for the next values; noted with them: A673 Ewing sarcoma viability, CellTiter-Glo ATP luminescence, 72 h; at 26 µM (top of the series).
Consider `C[C@@H]1CN([C@@H](C)CO)S(=O)(=O)c2ccc(C#CCN(C)C)cc2O[C@@H]1CN(C)Cc1ccncc1`, for which the activity change, negative = cytotoxicity is -10.8% (inactive).
Same read-out and setting: in the case of `CCCNC(=O)[C@@H]1[C@@H](CO)[C@@H]2Cn3c(ccc(-c4ccccc4)c3=O)[C@H]1N2C(=O)CC` it was 14.5% (inactive).
For `C/C(=N\Nc1cccc2cccnc12)c1ccccn1`, the activity change, negative = cytotoxicity was -0.624% (inactive).
In the case of `O=C(C[C@@H]1CC[C@@H]2[C@H](COC[C@@H](O)CN2S(=O)(=O)c2ccc(F)cc2)O1)NCc1ccc(Cl)c(Cl)c1`, the activity change, negative = cytotoxicity is 8.17% (inactive).
For the molecule `Nc1ccc(Oc2cccc(Oc3ccc(N)cc3)c2)cc1`, the activity change, negative = cytotoxicity was -3.72% (inactive).
Take `COc1ccc(CCC(C)NCC2CCCCC2)cc1` (stereo unspecified): the activity change, negative = cytotoxicity is 2.42% (inactive).
On the same count and under the same terms, the value for `Cc1ccc(C(CC(=O)O)Nc2nc(N3CCOCC3)nc(N3CCOCC3)n2)cc1` (stereo unspecified) was 16.9% (inactive); that for `C/C=C/c1ccc([C@H]2[C@@H](CO)N3C(=O)CN(S(=O)(=O)c4cccc(F)c4)C[C@@H]23)cc1` was -5.5% (inactive).
In the case of `N#Cc1cccc(-c2ccc(C3[C@@H]4CN(C(=O)Cc5ccncc5)C[C@H]3N4)cc2)c1` (stereo partly specified), the activity change, negative = cytotoxicity was -0.912% (inactive).
Regarding `CCOc1ccc(C(c2c(NC(=O)c3ccccc3)sc(C)c2C)N2CCN(CCO)CC2)cc1` (stereo unspecified), the activity change, negative = cytotoxicity was 9.4% (inactive).
Still for that read-out and setting: the value for `O=C(NC1CCCC1)C(c1ccccc1)n1c(CSCCOc2ccccc2)nc2ccccc21` (stereo unspecified) was -7.19% (inactive); that for `O=C(O)CN1C(=O)/C(=C\c2ccccc2OCc2ccc(Cl)cc2Cl)SC1=S` was -0.632% (inactive); that for `C[C@@H]1CCCCO[C@@H](CN(C)C(=O)Cc2ccccc2)[C@@H](C)CN([C@@H](C)CO)C(=O)c2cc(NS(=O)(=O)c3ccc(F)cc3)ccc2O1` was 7.89% (inactive).
For `Cc1noc(C)c1NC(=O)Nc1ccc2c(c1)CC(=O)N([C@@H](C)CO)C[C@@H](C)[C@@H](CN(C)Cc1ccc(Cl)c(Cl)c1)O2`, the activity change, negative = cytotoxicity is 0.825% (inactive).
For `CCOc1ccc(/C=C2\CCc3ccccc3C2=O)cc1`, the activity change, negative = cytotoxicity is -1.55% (inactive).
`N#C[C@H]1[C@H](c2ccc(C#Cc3ccccc3F)cc2)[C@@H](CO)N1C(=O)C1CCOCC1`: the activity change, negative = cytotoxicity was -1.72% (inactive).
In the case of `Cc1ccc(C(=O)CN2C(=O)c3ccccc3S2(=O)=O)cc1`, the activity change, negative = cytotoxicity was 11.7% (inactive).
For `CC1=NC(=O)C(N=Nc2cccc(C(=O)O)c2)N1c1ccccc1` (stereo unspecified), the activity change, negative = cytotoxicity was -2.93% (inactive).
In the case of `Nc1ncn([C@@H]2O[C@H](CO)[C@@H](O)[C@H]2O)c(=O)n1`, the activity change, negative = cytotoxicity is -13.8% (inactive).
On to `Cc1ccsc1/C=N/Nc1ccc(C(=O)O)cc1`, for which the activity change, negative = cytotoxicity was 5.43% (inactive).
On the same count and under the same terms, in the case of `O=C1CCCC2=C1C(c1ccccn1)Nc1ccc(C(=O)c3ccccc3)cc1N2` (stereo unspecified) it was 3.59% (inactive); in that of `COc1ccc(NC(=O)N(C)[C@H]2C[C@H]3c4[nH]c5ccccc5c4CCN3C(=O)[C@H]2CO)cc1`, 5.76% (inactive); in that of `O=C(O)c1cccc(N/N=C/c2ccc(OC(F)(F)F)cc2)c1`, 10.4% (inactive).
For the molecule `CCCCOc1ccc(NC(=O)C(=O)NCCCn2ccnc2)cc1`, the activity change, negative = cytotoxicity was -2.77% (inactive).
For the molecule `Nc1ccc2oc(-c3cc(Br)ccc3Cl)nc2c1`, the activity change, negative = cytotoxicity was 2.05% (inactive).
As to `Cc1ccc(N=C2NC(=O)/C(=C\c3cccs3)S2)cc1C`, the activity change, negative = cytotoxicity is 1.74% (inactive).
For the molecule `O=C(O)c1ccc(N/N=C/c2c(F)cccc2Cl)cc1`, the activity change, negative = cytotoxicity was -4.19% (inactive).
Consider `C[C@@H]1CN([C@@H](C)CO)C(=O)Cc2cc(NC(=O)Cn3cnnn3)ccc2O[C@@H]1CN(C)Cc1ccc(Oc2ccccc2)cc1`, for which the activity change, negative = cytotoxicity is 8.72% (inactive).
With `Cc1nc2cc(-c3ccc(Cl)cc3)nn2c(C)c1CCC(=O)NC(C)c1ccc2c(c1)OCCO2` (stereo unspecified), the activity change, negative = cytotoxicity was -6% (inactive).
Take `CCCc1nc2ccc(NC(=O)c3cccs3)cc2c(=O)n1Cc1ccccc1Cl`: the activity change, negative = cytotoxicity is 3.49% (inactive).
Consider `COc1ccccc1-c1cn(CC[C@H]2CC[C@@H](NC(=O)C3CCCC3)[C@@H](CO)O2)nn1`, for which the activity change, negative = cytotoxicity was 6.63% (inactive).
On to `CC(C)(C)C(=O)Nc1ccc(N=Nc2ccccc2)cc1`, for which the activity change, negative = cytotoxicity is -13.9% (inactive).
Turning to `Cc1ccc(/C=C/C(=O)N2CCN(S(=O)(=O)c3c(C)c(C)cc(C)c3C)CC2)o1`, the activity change, negative = cytotoxicity is 4.87% (inactive).
As for `C[C@@H]1CN([C@H](C)CO)S(=O)(=O)c2ccc(C#CC3CC3)cc2O[C@@H]1CN(C)Cc1ccccc1F`, the activity change, negative = cytotoxicity was -19.6% (inactive).
For the molecule `COc1ccc(C(=O)CN2C(=O)c3ccccc3S2(=O)=O)cc1`, the activity change, negative = cytotoxicity was 1.43% (inactive).
On to `O=C(COC(=O)c1ccc[nH]c1=O)Nc1ccc(N2CCCCC2)cc1`, for which the activity change, negative = cytotoxicity is 0.213% (inactive).
Still for that read-out and setting: in the case of `CCNC(=O)[C@@H]1[C@@H](CO)[C@@H]2Cn3c(ccc(C4=CCCCC4)c3=O)[C@H]1N2CC` it was -1.43% (inactive); in that of `c1cncc(-c2ccc([C@@H]3[C@H]4CNC[C@@H]3N4CC3CCOCC3)cc2)c1`, 9.2% (inactive); in that of `COc1cc(OC)cc(-c2cc3nc(C)c(CCC(=O)NCc4ccccc4)c(C)n3n2)c1`, 6.68% (inactive).
